Data published in US20190002452A1 (GUANGZHOU HENOVCOM BIOSCIENCE CO., LTD, priority 2016, published 2019).

Target: T1, human farnesol receptor protein hFXR (Homo sapiens, UniProt Q96RI1)
T1 construct: hexahistidine (His6)
T1 sequence (Q96RI1 1-486): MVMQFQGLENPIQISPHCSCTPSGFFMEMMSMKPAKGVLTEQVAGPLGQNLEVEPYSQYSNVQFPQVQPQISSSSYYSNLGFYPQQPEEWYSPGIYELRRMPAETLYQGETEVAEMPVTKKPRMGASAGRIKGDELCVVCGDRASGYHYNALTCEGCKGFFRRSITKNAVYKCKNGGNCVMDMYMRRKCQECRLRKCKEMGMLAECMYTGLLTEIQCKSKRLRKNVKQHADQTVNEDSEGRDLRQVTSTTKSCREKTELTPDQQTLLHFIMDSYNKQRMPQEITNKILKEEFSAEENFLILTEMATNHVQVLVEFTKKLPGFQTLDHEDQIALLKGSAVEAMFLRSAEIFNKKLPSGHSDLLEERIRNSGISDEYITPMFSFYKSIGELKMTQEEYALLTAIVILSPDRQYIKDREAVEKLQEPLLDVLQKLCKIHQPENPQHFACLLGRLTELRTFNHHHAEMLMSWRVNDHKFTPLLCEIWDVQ
Experiment: AlphaScreen assay of FXR agonist activity in vitro: effect on binding between human farnesol receptor protein and its coactivator (SRC1-2)
Format: biochemical
Conditions: hFXR 100 nM, peptide bSRC1-2 50 nM, 2 hr incubation at room temperature
Procedure: FXR agonist activity in vitro for the chemicals prepared in the above examples is measured.
AlphaScreen-based assays are performed with a hexahistidine detection kit manufactured by Perkins-Elmer, for measuring the effect of chemical compounds on the binding between human farnesol receptor protein and its coactivator (SRC1-2), the method is shown as follows:
1) Preparing a mixture comprising human farnesol receptor protein hFXR (100 nM, 15 μL/well), peptide bSRC1-2 (50 nM, 15 μL/well), 10× AlphaScreen buffer solution (15 μL/well and DI water (60 μL/well), and then transferring 105 μL/well of the mixture to a 96-well plate; 2) Diluting the chemicals prepared in the above examples by twice gradient 12×, with 15 μL/well; 3) Adding donor beads and acceptor beads, 30 μL/well in total; (attention: the beads are light-sensitive) 4) Incubating in dark at room temperature for 2 hr; 5) Transferring 40 μL/well of the mixture to a 384-well plate with 3 replicates, and then centrifuging at 1000 rpm for 1 min, to make liquid mixed well underneath the wells. (attention: photopathic operation); 6) In a dark room, reading the plate (by Homogeneous luminescent immunoassay system) to obtain EC50 with a GraphPad Prism5 software.

Row | Molecule | EC50 [nM]
1 | O=C(O)c1ccc2nc(N3CCc4ccc(OCc5c(-c6c(Cl)cccc6Cl)noc5C5CC5)cc4C3)sc2c1 [Example 24, 2-(7-((5-cyclopropyl-3-(2,6-dichlorophenyl)isoxazol-4-yl)methoxy)-3,4-dihydroisoquinolin-2(1H)-yl) benzo[d]thiazole-6-carboxylic Acid] | 100 to 1000
2 | O=C(O)c1ccc2nc(N3CC4CCCC(C3)C4OCc3c(-c4c(Cl)cccc4Cl)noc3C3CC3)sc2c1 (stereo not shown) [Example 28, 2-(9-((5-cyclopropyl-3-(2,6-dichlorophenyl)isoxazol-4-yl)methoxy)-3-azazbicyclo[3.3.1]nonan-3-yl) benzo[d]thiazole-6-carboxylic Acid] | < 100
3 | O=C(O)c1cc2cc(N3CCC4(CC(OCc5c(-c6c(Cl)cccc6Cl)noc5C5CC5)C4)C3)ccc2o1 (stereo not shown) [Example 29] | < 100
4 | O=C(O)c1cc2ccc(N3CCC4(CC(OCc5c(-c6c(Cl)cccc6Cl)noc5C5CC5)C4)C3)cc2s1 (stereo not shown) [Example 30, 6-(2-((5-cyclopropyl-3-(2,6-dichlorophenyl)isoxazol-4-yl)methoxy)-6-azaspiro[3.4]octan-6-yl) benzothiophene-2-carboxylic Acid] | 100 to 1000
5 | Cn1c(C(=O)O)cc2cc(N3CCC4(CC(OCc5c(-c6c(Cl)cccc6Cl)noc5C5CC5)C4)C3)ccc21 (stereo not shown) [Example 32, 5-(2-((5-cyclopropyl-3-(2,6-dichlorophenyl)isoxazol-4-yl)methoxy)-6-azaspiro[3.4]octan-6-yl)-1-methyl-1H-indole-2-carboxylic Acid] | 100 to 1000
6 | O=C(O)c1ccc2nc(N3CCC4(CC(OCc5c(-c6c(Cl)cccc6Cl)noc5C5CC5)C4)C3)ccc2c1 (stereo not shown) [Example 34, 2-(2-((5-cyclopropyl-3-(2,6-dichlorophenyl)isoxazol-4-yl)methoxy)-6-azaspiro[3.4]octan-6-yl)quinolin-6-carboxylic Acid] | 100 to 1000
7 | O=C(O)c1cnc(N2CCC3(CC(OCc4c(-c5c(Cl)cccc5Cl)noc4C4CC4)C3)C2)cn1 (stereo not shown) [Example 35, 5-(2-((5-cyclopropyl-3-(2,6-dichlorophenyl)isoxazol-4-yl)methoxy)-6-azaspiro[3.4]octan-6-yl)pyrazine-2-carboxylic Acid] | < 100
8 | O=C(O)c1cccc(N2CCC3(CC(OCc4c(-c5c(Cl)cccc5Cl)noc4C4CC4)C3)C2)n1 (stereo not shown) [Example 36, 6-(2-((5-cyclopropyl-3-(2,6-dichlorophenyl)isoxazol-4-yl)methoxy)-6-azaspiro[3.4]octan-6-yl)pyridine-2-carboxylic Acid] | 100 to 1000
9 | O=C(O)c1ccc2nc(N3CCC4(CC(OCc5c(-c6c(F)cccc6F)noc5C5CC5)C4)C3)sc2c1 (stereo not shown) [Example 38] | 100 to 1000
10 | O=C(O)c1ccc2nc(N3CCc4cc(OCc5c(-c6c(F)cccc6F)noc5C5CC5)ccc4C3)sc2c1 [Example 40, 2-(6-((5-cyclopropyl-3-(2,6-difluorophenyl)isoxazol-4-yl)methoxy)-3,4-dihydroisoquinolin-2(1H)-yl) benzo[d]thiazole-6-carboxylic Acid] | < 100
11 | O=C(O)c1ccc2nc(N3CCC4(CC(OCc5c(-c6ccccc6C(F)(F)F)noc5C5CC5)C4)C3)oc2c1 (stereo not shown) [Example 42, 2-(2-((5-cyclopropyl-3-(2-trifluoromethylphenyl)isoxazol-4-yl)methoxy)-6-azaspiro[3.4]octan-6-yl) benzo[d]oxazole-6-carboxylic Acid] | 100 to 1000
12 | O=C(O)c1ccc2nc(N3CCc4cc(OCc5c(-c6ccccc6C(F)(F)F)noc5C5CC5)ccc4C3)sc2c1 [Example 43, 2-(6-((5-cyclopropyl-3-(2-trifluoromethylphenyl)isoxazol-4-yl)methoxy)-3,4-dihydroisoquinolin-2(1H)-yl) benzo[d]thiazole-6-carboxylic Acid] | < 100
13 | CS(=O)(=O)NC(=O)c1ccc2nc(N3CCC4(CC(OCc5c(-c6c(Cl)cccc6Cl)noc5C5CC5)C4)C3)sc2c1 (stereo not shown) [Example 47, 2-(2-((5-cyclopropyl-3-(2,6-dichlorophenyl)isoxazol-4-yl)methoxy)-6-azaspiro[3.4]octan-6-yl)-N-(methylsulfonyl)benzo[d]thiazole-6-carboxamide] | 100 to 1000
14 | O=C(O)c1ccc2nc(N3CCC(COCc4c(-c5c(Cl)cccc5Cl)noc4C4CC4)CC3)sc2c1 [Example 48] | 100 to 1000

More lines, now with the values ahead:

Row | EC50 [nM] | Molecule
15 | 100 to 1000 | O=C(O)c1ccc2nc(N3CC4CCC(OCc5c(-c6c(Cl)cccc6Cl)noc5C5CC5)CC4C3)sc2c1 (stereo not shown) [Example 25, 2-(5-((5-cyclopropyl-3-(2,6-dichlorophenyl)isoxazol-4-yl)methoxy)hexahydro-1H-isoindol-2(3H)-yl) benzo[d]thiazole-6-carboxylic Acid]
16 | < 100 | O=C(O)c1ccc2nc(N3CC4CC(OCc5c(-c6c(Cl)cccc6Cl)noc5C5CC5)CC4C3)sc2c1 (stereo not shown) [Example 26, 2-(5-((5-cyclopropyl-3-(2,6-dichlorophenyl)isoxazol-4-yl)methoxy)hexahydrocyclopenta[c]pyrrol-2(1H)-yl) benzo[d]thiazole-6-carboxylic Acid]
17 | < 100 | O=C(O)c1nsc2cc(N3CCC4(CC(OCc5c(-c6c(Cl)cccc6Cl)noc5C5CC5)C4)C3)ccc12 (stereo not shown) [Example 31, 6-(2-((5-cyclopropyl-3-(2,6-dichlorophenyl)isoxazol-4-yl)methoxy)-6-azaspiro[3.4]octan-6-yl) benzo[d]isothiazole-3-carboxylic Acid]
18 | 100 to 1000 | Cn1cc(C(=O)O)c2ccc(N3CCC4(CC(OCc5c(-c6c(Cl)cccc6Cl)noc5C5CC5)C4)C3)cc21 (stereo not shown) [Example 33, 6-(2-((5-cyclopropyl-3-(2,6-dichlorophenyl)isoxazol-4-yl)methoxy)-6-azaspiro[3.4]octan-6-yl)-1-methyl-1H-indole-3-carboxylic Acid]
19 | 100 to 1000 | O=C(O)c1ccc(N2CCC3(CC(OCc4c(-c5c(Cl)cccc5Cl)noc4C4CC4)C3)C2)c(F)c1 (stereo not shown) [Example 37, 4-(2-((5-cyclopropyl-3-(2,6-dichlorophenyl)isoxazol-4-yl)methoxy)-6-azaspiro[3.4]octan-6-yl)-3-fluorobenzoic Acid]
20 | 100 to 1000 | O=C(O)c1ccc2nc(N3CCC4(CC(OCc5c(-c6c(F)cccc6F)noc5C5CC5)C4)C3)oc2c1 (stereo not shown) [Example 39, 2-(2-((5-cyclopropyl-3-(2,6-difluorophenyl)isoxazol-4-yl)methoxy)-6-azaspiro[3.4]octan-6-yl) benzo[d]oxazole-6-carboxylic Acid]
21 | 100 to 1000 | O=C(O)c1ccc2nc(N3CCC4(CC(OCc5c(-c6ccccc6C(F)(F)F)noc5C5CC5)C4)C3)sc2c1 (stereo not shown) [Example 41, 2-(2-((5-cyclopropyl-3-(2-trifluoromethylphenyl)isoxazol-4-yl)methoxy)-6-azaspiro[3.4]octan-6-yl) benzo[d]thiazole-6-carboxylic Acid]
22 | < 100 | O=C(O)c1ccc(N2CCC3(CC(OCc4c(-c5c(Cl)cccc5Cl)noc4C4CC4)C3)C2)nc1 (stereo not shown) [Example 44, 6-(2-((5-cyclopropyl-3-(2,6-dichlorophenyl)isoxazol-4-yl)methoxy)-6-azaspiro[3.4]octan-6-yl) pyridine-3-carboxylic Acid]
23 | 100 to 1000 | O=C(O)c1ccc(N2CCC3(CC(OCc4c(-c5c(Cl)cccc5Cl)noc4C4CC4)C3)C2)cn1 (stereo not shown) [Example 45]
24 | < 100 | O=C(O)c1ccc(N2CCC3(CC(OCc4c(-c5c(Cl)cccc5Cl)noc4C4CC4)C3)C2)nn1 (stereo not shown) [Example 46, 6-(2-((5-cyclopropyl-3-(2,6-dichlorophenyl)isoxazol-4-yl)methoxy)-6-azaspiro[3.4]octan-6-yl) pyridazine-3-carboxylic Acid]
25 | 100 to 1000 | (S)-2-(2-((5-cyclopropyl-3-(2,6-dichlorophenyl)isoxazol-4-yl)methoxy)-7-(fluromethyl)-6-azaspiro[3.4]octan-6-yl)-4-methoxybenzo[d]thiazole-6-carboxylic Acid [Example 20]
